Data set [1] can be described thus: Cell viability: resazurin assay. In kind it is cell-based, human. The conditions noted are these: human, HEp2 cells. An outline of the steps: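 HEp2 cells in 5% FBS DMEM exposed to compounds (0.5% DMSO final) for 5 days at 37 °C/5% CO2, then resazurin added for 6 h; fluorescence read at 545/590 nm. Percent viability loss calculated versus 0.5% DMSO vehicle, with increases shown as negative values; CC50 taken from concentration-response curves where appropriate.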
A general note: Alamar Blue is a resazurin reagent that responds to reducing activity.

Data set [2] deals with RSV A2 F-protein expression in BEAS2B bronchial epithelial cells. Kind of data set: Assessment of RSV F protein expression in BEAS2B bronchial epithelial cells. The conditions noted are these: human respiratory syncytial virus, BEAS-2B, 72 h, read-out: RSV A2 F-protein IC50 (nM). Type of data set: cell-based. Here is the method:
Assessment of RSV F Protein Expression in BEAS2B Bronchial Epithelial Cells
An early event which follows the infection of epithelial cells by RSV is the expression of RSV F-protein on the cells' surface. BEAS2B cells (SV40-immortalised human bronchial epithelial cell line) were grown in 96 well plates. Once more than 70% confluent, cells were infected with RSV A2 (#0709161v, NCPV, Public Health England, Wiltshire) at an MOI of 0.01 in clear RPMI-1640 medium (Life technologies, Paisley, UK) with 2% FBS (Life technologies, Paisley, UK), and incubated for 3 days (37° C./5% CO2).
Supernatant was aspirated and the cells were fixed with 4% formaldehyde (100 μL in PBS solution) for 20 min, washed 3 times with washing buffer (200 μL; PBS containing 0.05% Tween-20) and incubated with blocking solution (100 μL; 5% Marvel milk in PBS) for 1 hr. Cells were then washed with washing buffer (200 μL) and incubated for 1 hr at 37° C. with anti-RSV (2F7; mouse monoclonal, lot 160290, Cat. No. ab43812, Abcam plc, Cambridge, UK) F-fusion protein antibody (50 μL; prepared at a 1:1000 dilution in 5% milk/PBS-tween). After washing, cells were incubated with an HRP-conjugated anti-mouse IgG antibody (50 μL prepared at a 1:2000 dilution in 5% milk in PBS; lot 00095437, Cat.No. P0447, Dako UK Ltd, Cambridgeshire, UK) for 1 hr. Cells were washed twice with washing buffer and once with PBS. TMB substrate (100 μL; substrate reagent pack lot 320436, Cat. No. DY999, R&D Systems, Inc. Abingdon, UK) was then added and the reaction was stopped by the addition of aq sulfuric acid (50 μL; 2N). The resultant signal was determined colourimetrically (OD: 450 nm with a reference wavelength of 655 nm) in a microplate reader (Multiskan FC®, ThermoFisher Scientific). Cells were then washed and 1% crystal violet solution (50 μL; lot SLB4576, Cat. No. HT90132-1L, Sigma-Aldrich) was applied for 30 min. After washing with PBS (200 μL) 3 times, 1% SDS (100 μL) was added to each well, and plates were shaken lightly for 1 hr prior to reading the absorbance at 595 nm. The measured OD450-655 readings were corrected for cell number by dividing the OD450-655 by the OD595 readings. The percentage inhibition for each well was calculated and the IC50 value derived from the concentration-response curve generated for each test compound.

Data set [3] deals with RSV A2 strain. Kind of data set: Assessment of RSV induced CPE in HEp2 cells (RSV A2 strain). Type of data set: cell-based. The conditions noted are these: human respiratory syncytial virus; for IC50: HEp-2, 120 h; for inhibition at 0.01 µg/mL: Inhibition (%) at 0.01 μg/mL. An outline of the steps: (§1)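 HEp2 cells were infected at MOI 1 with RSV A2 or RSV B Washington, with compound added at the same time (0.5% DMSO final). Incubation was 5 days for A2 and 6 days for B, then viability was read by resazurin fluorescence (545/590 nm) after 6 h. IC50, IC75 and IC90 came from concentration-response curves.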

Data set [4] deals with RSV B Washington strain. As to the kind of experiment: Assessment of RSV induced CPE in HEp2 cells (RSV B Washington strain). The conditions noted are these: human respiratory syncytial virus; for IC50: HEp-2, 144 h; for inhibition at 0.1 µg/mL: Inhibition (%) at 0.1 μg/mL. Type of data set: cell-based. Summed up: as §1
The mark [5] stands for this setting: HEp2 cells, 1 MOI, 5 days, read-out: RSV A2 CPE IC50.
Where [6] appears, read: HEp-2, HEp2 cells, Inhibition (%) at 0.1 μg/mL, read-out: RSV A2 CPE % Inhibition.
[7] abbreviates: HEp2 cells, 1 MOI, 6 days, read-out: RSV B CPE IC50.
The mark [8] stands for this setting: HEp-2, HEp2 cells, Inhibition (%) at 1 μg/mL, read-out: RSV B CPE % Inhibition.

Where two headings read alike, the source gives them in different places.

For orientation: CC50 means the concentration that lowers cell viability or growth by half. Lower therefore signals greater toxicity to the cells. Usually IC50 stands for the concentration that gives 50% inhibition. The inhibition is the drop in the measured response relative to a control, in per cent.

`Cc1cccc(F)c1NC(=O)c1cc2c(s1)-c1ccccc1N(C(=O)c1ccc(NC(=O)c3cc4ccccc4nc3N3CC4(CCOCC4)C3)cc1)CC2` [Example 10, 6-(4-(2-(7-Oxa-2-azaspiro[3.5]nonan-2-yl)quinoline-3-carboxamido)benzoyl)-N-(2-fluoro-6-methylphenyl)-5,6-dihydro-4H-benzo[b]thieno[2,3-d]azepine-2-carboxamide]: the CC50 at 5 days in data set [1] was > 13300 nM. In addition, the values for the IC50 in data set [2], in data set [3] (setting [5]) and in data set [4] (setting [7]) were 0.48 nM, 0.11 nM and 1.5 nM, respectively. In addition, the inhibition at 0.1 µg/mL in data set [3] (setting [6]) was found to be 100%; in data set [4] (HEp-2, HEp2 cells), 100%.
As to `N#Cc1ccccc1NC(=O)c1cc2c(s1)-c1ccccc1N(C(=O)c1ccc(NC(=O)c3cccnc3N3CC4(CCOCC4)C3)cc1)CC2` [Example 2, 6-(4-(2-(7-oxa-2-azaspiro[3.5]nonan-2-yl)nicotinamido)benzoyl)-N-(2-cyanophenyl)-5,6-dihydro-4H-benzo[b]thieno[2,3-d]azepine-2-carboxamide], the CC50 at 5 days in data set [1] was > 14400 nM. Also, the values for the IC50 in data set [3] (read-out: RSV A2 CPE IC50 (nM)) and in data set [4] (read-out: RSV B CPE IC50 (nM)) were 0.16 nM and 314 nM, respectively. Moreover, the inhibition at 0.1 µg/mL in data set [3] (HEp-2, read-out: RSV A2 CPE % Inhibition) was 91%. Besides, the inhibition at 1 µg/mL in data set [4] (HEp-2, read-out: RSV B CPE % Inhibition) was 69%.
As for `Cc1cnc(N2CC3(CCOCC3)C2)c(C(=O)Nc2ccc(C(=O)N3CCc4cc(C(=O)Nc5c(F)cccc5C5CC5)sc4-c4ccccc43)cc2)c1` [Example 7, N-(2-Cyclopropyl-6-fluorophenyl)-6-(4-(5-methyl-2-(7-oxa-2-azaspiro[3.5]nonan-2-yl)nicotinamido)benzoyl)-5,6-dihydro-4H-benzo[b]thieno[2,3-d]azepine-2-carboxamide], the CC50 at 5 days in data set [1] was > 13500 nM. Moreover, the IC50 was found to be 0.15 nM in data set [3] (setting [5]) and 98.6 nM in data set [4] (setting [7]). Also, the inhibition at 0.1 µg/mL in data set [3] (setting [6]) was found to be 100%. The inhibition at 1 µg/mL in data set [4] (setting [8]) came out at 94%.
For the compound `Cc1ccccc1NC(=O)c1cc2c(s1)-c1ccccc1N(C(=O)c1ccc(NC(=O)c3cc(C)c(C)nc3N3CC4(CCOCC4)C3)cc1)CC2` [Example 42, 6-(4-(5,6-dimethyl-2-(7-oxa-2-azaspiro[3.5]nonan-2-yl)nicotinamido)benzoyl)-N-(o-tolyl)-5,6-dihydro-4H-benzo[b] thieno[2,3-d]azepine-2-carboxamide], the CC50 at 5 days in data set [1] is > 14000 nM. Also, the IC50 in data set [3] (setting [5]) was 0.14 nM; in data set [4] (setting [7]), 60.5 nM. Moreover, in data set [3] (setting [6]), the inhibition at 0.1 µg/mL was found to be 97%. Moreover, the inhibition at 1 µg/mL in data set [4] (setting [8]) is 80%.
Take `Cc1cnc(N2CCC3(CC2)COC3)c(C(=O)Nc2ccc(C(=O)N3CCc4cc(C(=O)Nc5c(C)cccc5F)sc4-c4ccccc43)cc2)c1` [Example 91, N-(2-fluoro-6-methylphenyl)-6-(4-(5-methyl-2-(2-oxa-7-azaspiro[3.5]nonan-7-yl)nicotinamido)benzoyl)-5,6-dihydro-4H-benzo[b]thieno[2,3-d]azepine-2-carboxamide]: the CC50 at 5 days in data set [1] is > 14000 nM. The IC50 in data set [3] (setting [5]) is 1.3 nM; in data set [4] (setting [7]), 393 nM. Testing at 0.01 µg/mL in data set [3] (HEp-2, HEp2 cells) gave an inhibition of 100%. Further, the inhibition at 1 µg/mL in data set [4] (setting [8]) came to 100%.
In the case of `O=C(Nc1ccccc1F)c1cc2c(s1)-c1ccccc1N(C(=O)c1ccc(NC(=O)c3cc4ccccc4nc3N3CC4(CCOCC4)C3)cc1)CC2` [Example 84, 6-(4-(2-(7-oxa-2-azaspiro[3.5]nonan-2-yl)quinoline-3-carboxamido)benzoyl)-N-(2-fluorophenyl)-5,6-dihydro-4H-benzo[b]thieno[2,3-d]azepine-2-carboxamide], in data set [1], the CC50 at 5 days was > 13600 nM. The IC50 in data set [3] (setting [5]) was 0.13 nM; in data set [4] (setting [7]), 11 nM. Further, the inhibition at 0.1 µg/mL in data set [3] (setting [6]) was 97%. The inhibition at 1 µg/mL in data set [4] (setting [8]) stood at 68%.
Take `Cc1cccc(F)c1NC(=O)c1cc2c(s1)-c1ccccc1N(C(=O)c1ccc(NC(=O)c3cc4sccc4nc3N3CC4(CCOCC4)C3)cc1)CC2` [Example 89, 6-(4-(5-(7-oxa-2-azaspiro[3.5]nonan-2-yl)thieno[3,2-b]pyridine-6-carboxamido)benzoyl)-N-(2-fluoro-6-methyl-phenyl)-5,6-dihydro-4H-benzo[b]thieno[2,3-d]azepine-2-carboxamide]: in data set [1], the CC50 at 5 days was > 13200 nM. Besides, the IC50 in data set [3] (setting [5]) is 0.5 nM; in data set [4] (setting [7]), 19.4 nM. Besides, the inhibition at 0.01 µg/mL in data set [3] (HEp-2, HEp2 cells) turned out to be 100%. Also, in data set [4] (HEp-2, HEp2 cells), the inhibition at 0.1 µg/mL is 100%.
On to `Cc1cnc(N2CC3(CCOCC3)C2)c(C(=O)Nc2ccc(C(=O)N3CCc4cc(C(=O)Nc5c(F)cccc5F)sc4-c4ccccc43)cc2)c1` [Example 47, N-(2,6-difluorophenyl)-6-(4-(5-methyl-2-(7-oxa-2-aza-spiro[3.5]nonan-2-yl)nicotinamido)benzoyl)-5,6-dihydro-4H-benzo[b]thieno[2,3-d]azepine-2-carboxamide], for which, in data set [1], the CC50 at 5 days is > 13900 nM. Moreover, the IC50 turned out to be 0.13 nM in data set [3] (setting [5]) and 5.7 nM in data set [4] (setting [7]). In data set [3] (HEp-2, HEp2 cells), this compound had an inhibition at 0.01 µg/mL of 100%. The same compound yielded an inhibition at 0.1 µg/mL in data set [4] (HEp-2, HEp2 cells) of 100%.
Consider `Cc1cccc(C#N)c1NC(=O)c1cc2c(s1)-c1ccccc1N(C(=O)c1ccc(NC(=O)c3cc4c(nc3N3CC5(CCOCC5)C3)CCC4)cc1)CC2` [Example 74, 6-(4-(2-(7-oxa-2-azaspiro[3.5]nonan-2-yl)-6,7-dihydro-5H-cyclopenta[b]pyridine-3-carboxamido)benzoyl)-N-(2-cyano-6-methylphenyl)-5,6-dihydro-4H-benzo[b]thieno[2,3-d]azepine-2-carboxamide], for which, in data set [1], the CC50 at 5 days was > 13400 nM. Further, the IC50 was 0.88 nM in data set [3] (setting [5]) and 3.8 nM in data set [4] (setting [7]). In data set [3] (HEp-2, HEp2 cells), the inhibition at 0.01 µg/mL worked out at 100%. The inhibition at 1 µg/mL in data set [4] (setting [8]) worked out at 77%.
The matching figures for `O=C(Nc1c(F)cccc1F)c1cc2c(s1)-c1ccccc1N(C(=O)c1ccc(NC(=O)c3cc(C4CC4)cnc3N3CC4(CCOCC4)C3)cc1)CC2` [Example 72, 6-(4-(5-cyclopropyl-2-(7-oxa-2-azaspiro[3.5]nonan-2-yl)nicotinamido)benzoyl)-N-(2,6-difluorophenyl)-5,6-dihydro-4H-benzo[b]thieno[2,3-d]azepine-2-carboxamide]: > 13400 nM, 0.32 nM, 3.3 nM, 100% and 89%.
The matching figures for `[2H]c1c([2H])c(C(=O)N2CCc3cc(C(=O)Nc4c(C)cccc4F)sc3-c3ccccc32)c([2H])c([2H])c1NC(=O)c1cc(C)cnc1N1CC2(CCOCC2)C1` [Example 70]: > 13900 nM, 0.18 nM, 1.2 nM, 76% and 100%.
For the compound `Cc1cccc(F)c1NC(=O)c1cc2c(s1)-c1ccccc1N(C(=O)c1ccc(NC(=O)c3cccnc3N3CC4(CCOCC4)C3)cc1)CC2` [Example 25, 6-(4-(2-(7-oxa-2-azaspiro[3.5]nonan-2-yl)nicotinamido)benzoyl)-N-(2-fluoro-6-methylphenyl)-5,6-dihydro-4H-benzo[b]thieno[2,3-d]azepine-2-carboxamide], in data set [1], the CC50 at 5 days was > 14200 nM. The IC50 was 0.18 nM in data set [3] (setting [5]) and 20.6 nM in data set [4] (setting [7]). For the same compound, the inhibition at 0.1 µg/mL in data set [3] (setting [6]) worked out at 99%. Besides, the inhibition at 1 µg/mL in data set [4] (setting [8]) is 71%.

Values taken from patent publication US10189863B2, “5,6-dihydro-4H-benzo[b]thieno-[2,3-d]azepine derivatives” (PULMOCIDE LIMITED, priority 2014, dated 2019).
